According to ChEMBL document CHEMBL5223156, “Synthesis and biological evaluation of novel N-benzyltriazolyl-hydroxamate derivatives as selective histone deacetylase 6 inhibitors” (Bioorg Med Chem, 2023):
Calls of active or inactive are those of the source. No cut-off for these calls is given here.

Experiments:
[1] = target: Histone deacetylase 1 (Homo sapiens, UniProt Q13547); test: Inhibition of human recombinant HDAC1 using fluorogenic substrate measured after 30 mins
[2] = target: T1, Protein deacetylase HDAC6 (Homo sapiens, UniProt Q9UBN7); test: Inhibition of human recombinant HDAC6 using fluorogenic substrate measured after 30 mins
T1 sequence (Q9UBN7 whole entry): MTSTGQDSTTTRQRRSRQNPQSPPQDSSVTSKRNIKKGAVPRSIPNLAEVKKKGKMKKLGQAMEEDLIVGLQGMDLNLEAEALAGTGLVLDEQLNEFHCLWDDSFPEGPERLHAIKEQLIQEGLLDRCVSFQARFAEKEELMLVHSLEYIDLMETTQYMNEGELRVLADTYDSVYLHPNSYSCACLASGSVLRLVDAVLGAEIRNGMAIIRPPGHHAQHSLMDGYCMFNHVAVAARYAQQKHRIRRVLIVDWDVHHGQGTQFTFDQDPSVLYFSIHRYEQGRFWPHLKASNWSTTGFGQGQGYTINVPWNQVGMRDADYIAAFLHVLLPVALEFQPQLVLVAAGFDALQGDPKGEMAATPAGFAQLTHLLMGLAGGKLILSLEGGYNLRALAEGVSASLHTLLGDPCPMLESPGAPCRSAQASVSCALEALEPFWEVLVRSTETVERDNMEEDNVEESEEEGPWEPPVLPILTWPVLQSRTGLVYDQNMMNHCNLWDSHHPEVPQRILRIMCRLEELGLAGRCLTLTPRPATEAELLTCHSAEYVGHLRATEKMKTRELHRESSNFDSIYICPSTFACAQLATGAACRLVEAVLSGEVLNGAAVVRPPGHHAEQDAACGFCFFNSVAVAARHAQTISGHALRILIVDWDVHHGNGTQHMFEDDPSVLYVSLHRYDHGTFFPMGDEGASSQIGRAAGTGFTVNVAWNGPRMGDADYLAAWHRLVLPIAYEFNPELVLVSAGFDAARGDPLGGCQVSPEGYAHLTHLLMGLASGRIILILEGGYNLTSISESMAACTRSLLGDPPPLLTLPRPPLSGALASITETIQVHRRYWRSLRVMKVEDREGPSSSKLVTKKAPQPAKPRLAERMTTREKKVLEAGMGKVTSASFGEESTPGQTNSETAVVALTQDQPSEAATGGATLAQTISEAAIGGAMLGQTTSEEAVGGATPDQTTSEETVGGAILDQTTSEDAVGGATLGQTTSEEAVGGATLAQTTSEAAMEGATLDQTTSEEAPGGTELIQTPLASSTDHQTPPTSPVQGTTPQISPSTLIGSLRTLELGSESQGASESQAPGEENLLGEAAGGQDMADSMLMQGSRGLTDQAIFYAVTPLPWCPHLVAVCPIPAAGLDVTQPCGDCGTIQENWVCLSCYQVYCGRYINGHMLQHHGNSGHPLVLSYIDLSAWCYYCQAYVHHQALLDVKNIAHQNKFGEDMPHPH

[3] = Cytotoxicity against human SH-SY5Y cells assessed as cell viability measured after 36 hrs by CCK8 assay
[4] = target: T2, Protein deacetylase HDAC6 (Homo sapiens) (UniProt Q9UBN7); test: Inhibition of HDAC6 in human SH-SY5Y cells assessed as acetylated histone H3 level at 0.3 to 3 uM measured after 24 hrs by immunoblotting analysis; assay type: cell-based; settings: dose 0.3-3 µM
T2 sequence (whole entry): T1 sequence (Q9UBN7 whole entry)

[5] = target: T3, Histone deacetylase 11 (Homo sapiens, UniProt Q96DB2); test: Inhibition of human recombinant HDAC11 using fluorogenic substrate measured after 30 mins
T3 sequence (Q96DB2 whole entry): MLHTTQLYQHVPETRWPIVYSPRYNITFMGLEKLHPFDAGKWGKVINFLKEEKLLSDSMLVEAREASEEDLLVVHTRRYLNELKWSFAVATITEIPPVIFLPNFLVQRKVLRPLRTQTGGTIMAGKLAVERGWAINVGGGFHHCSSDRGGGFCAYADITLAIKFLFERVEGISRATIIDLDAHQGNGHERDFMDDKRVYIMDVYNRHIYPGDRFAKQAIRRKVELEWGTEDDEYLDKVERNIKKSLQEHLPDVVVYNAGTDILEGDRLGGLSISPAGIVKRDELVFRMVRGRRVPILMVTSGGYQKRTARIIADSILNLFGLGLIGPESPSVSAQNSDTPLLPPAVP

[6] = target: Histone deacetylase 2 (Homo sapiens, UniProt Q92769); test: Inhibition of human recombinant HDAC2 using fluorogenic substrate measured after 30 mins
Sequence of Histone deacetylase 2 (Q92769 whole entry): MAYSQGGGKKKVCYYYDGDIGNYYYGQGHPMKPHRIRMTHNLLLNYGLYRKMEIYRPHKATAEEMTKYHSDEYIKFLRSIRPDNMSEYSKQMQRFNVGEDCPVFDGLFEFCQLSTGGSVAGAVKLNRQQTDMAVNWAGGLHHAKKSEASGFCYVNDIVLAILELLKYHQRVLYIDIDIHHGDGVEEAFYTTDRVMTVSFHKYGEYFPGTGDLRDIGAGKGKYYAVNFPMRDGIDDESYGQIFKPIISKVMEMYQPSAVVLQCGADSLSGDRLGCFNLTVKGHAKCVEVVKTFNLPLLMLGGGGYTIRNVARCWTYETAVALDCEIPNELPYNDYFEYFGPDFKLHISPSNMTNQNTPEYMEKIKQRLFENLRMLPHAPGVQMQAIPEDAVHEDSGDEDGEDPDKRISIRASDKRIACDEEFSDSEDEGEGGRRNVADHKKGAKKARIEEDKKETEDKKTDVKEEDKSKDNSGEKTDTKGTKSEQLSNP

[7] = target: T2, Protein deacetylase HDAC6 (Homo sapiens); test: Inhibition of HDAC6 in human HeLa cells assessed as acetylated histone H3 level at 0.3 to 3 uM measured after 24 hrs by immunoblotting analysis; assay type: cell-based; settings: dose 0.3-3 µM
[8] = target: Histone deacetylase 4 (Homo sapiens, UniProt P56524); test: Inhibition of human recombinant HDAC4 using fluorogenic substrate measured after 30 mins
Sequence of Histone deacetylase 4 (P56524 whole entry): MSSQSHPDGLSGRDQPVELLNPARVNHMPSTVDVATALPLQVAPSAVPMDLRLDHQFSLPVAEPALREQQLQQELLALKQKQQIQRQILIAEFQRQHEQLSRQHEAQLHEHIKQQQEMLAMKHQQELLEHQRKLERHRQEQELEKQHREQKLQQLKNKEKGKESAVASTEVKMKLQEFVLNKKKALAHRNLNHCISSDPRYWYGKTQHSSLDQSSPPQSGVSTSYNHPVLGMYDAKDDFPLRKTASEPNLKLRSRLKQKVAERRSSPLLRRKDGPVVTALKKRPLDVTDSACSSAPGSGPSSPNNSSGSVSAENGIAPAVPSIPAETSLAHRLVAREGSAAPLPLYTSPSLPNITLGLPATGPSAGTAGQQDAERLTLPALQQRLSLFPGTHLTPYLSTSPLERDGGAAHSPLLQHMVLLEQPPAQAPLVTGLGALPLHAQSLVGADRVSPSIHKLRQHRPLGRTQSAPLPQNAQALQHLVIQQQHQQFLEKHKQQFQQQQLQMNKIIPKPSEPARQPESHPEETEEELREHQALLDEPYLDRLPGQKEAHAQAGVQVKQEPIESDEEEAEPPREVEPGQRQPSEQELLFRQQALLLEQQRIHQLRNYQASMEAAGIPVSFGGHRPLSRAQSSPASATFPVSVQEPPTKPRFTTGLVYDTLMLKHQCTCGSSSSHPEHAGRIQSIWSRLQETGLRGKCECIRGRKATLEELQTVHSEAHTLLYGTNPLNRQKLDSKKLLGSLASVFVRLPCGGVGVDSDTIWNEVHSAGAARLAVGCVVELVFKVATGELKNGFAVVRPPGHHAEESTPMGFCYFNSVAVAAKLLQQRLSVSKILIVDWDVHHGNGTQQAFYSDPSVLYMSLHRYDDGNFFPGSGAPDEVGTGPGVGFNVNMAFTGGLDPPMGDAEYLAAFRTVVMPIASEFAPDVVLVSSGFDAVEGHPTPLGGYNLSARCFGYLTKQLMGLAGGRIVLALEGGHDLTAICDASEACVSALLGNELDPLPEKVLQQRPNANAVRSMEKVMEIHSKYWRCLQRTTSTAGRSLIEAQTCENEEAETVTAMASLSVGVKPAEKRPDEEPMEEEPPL

[9] = target: T4, Histone deacetylase 8 (Homo sapiens, UniProt Q9BY41); test: Inhibition of human recombinant HDAC8 using fluorogenic substrate measured after 30 mins
T4 sequence (Q9BY41 whole entry): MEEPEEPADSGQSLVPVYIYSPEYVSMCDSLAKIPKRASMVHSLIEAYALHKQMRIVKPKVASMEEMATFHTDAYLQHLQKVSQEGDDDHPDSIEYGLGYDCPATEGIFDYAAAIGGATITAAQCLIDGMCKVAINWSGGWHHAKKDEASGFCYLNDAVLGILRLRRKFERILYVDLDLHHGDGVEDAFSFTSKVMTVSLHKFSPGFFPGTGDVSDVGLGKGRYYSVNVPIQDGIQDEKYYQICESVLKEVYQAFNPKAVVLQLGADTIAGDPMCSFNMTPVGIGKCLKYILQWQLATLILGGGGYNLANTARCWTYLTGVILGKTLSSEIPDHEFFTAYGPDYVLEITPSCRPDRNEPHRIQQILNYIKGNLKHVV

Sequence of Histone deacetylase 1 (Q13547 whole entry): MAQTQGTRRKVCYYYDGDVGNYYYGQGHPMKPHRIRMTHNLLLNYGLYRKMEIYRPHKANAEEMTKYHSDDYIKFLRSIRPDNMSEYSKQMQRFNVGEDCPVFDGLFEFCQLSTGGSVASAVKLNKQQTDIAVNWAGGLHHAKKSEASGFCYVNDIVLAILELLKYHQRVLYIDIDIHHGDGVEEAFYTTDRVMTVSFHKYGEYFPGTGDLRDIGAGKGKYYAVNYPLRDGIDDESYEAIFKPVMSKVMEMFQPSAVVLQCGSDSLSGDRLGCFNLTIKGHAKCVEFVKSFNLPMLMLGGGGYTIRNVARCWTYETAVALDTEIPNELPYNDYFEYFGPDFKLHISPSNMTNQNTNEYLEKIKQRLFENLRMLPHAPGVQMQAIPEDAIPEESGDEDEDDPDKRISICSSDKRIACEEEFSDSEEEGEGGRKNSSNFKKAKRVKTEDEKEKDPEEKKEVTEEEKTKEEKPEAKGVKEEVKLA

SMILES | IC50 [1] [nM] | IC50 [2] [nM] | other results
O=C(NO)c1ccc(Cn2cnc(-c3ccccc3F)n2)c(F)c1 | 299 | 7.09 | IC50 at 36 h [3]: 8210 nM; inhibition [4]: Active; IC50 [5]: 8090 nM; IC50 [6]: 509 nM; inhibition [7]: Active; IC50 [8]: 4040 nM; IC50 [9]: 813 nM
O=C(NO)c1cccc(Cn2cncn2)c1 | 23200 | 11400 | –
O=C(NO)c1ccc(Cn2ncnc2-c2ccccc2F)cc1 | 605 | 11.8 | –
O=C(NO)c1ccc(Cn2ncnc2-c2cccs2)cc1 | 427 | 18.3 | –
O=C(NO)c1ccc(Cn2cnc(-c3cccc(-c4ccccc4)c3)n2)cc1 | 150 | 11.1 | –
O=C(NO)c1ccc(Cn2cnc(-c3cccs3)n2)cc1 | 249 | 10.4 | –
O=C(NO)c1ccc(Cn2cnc(-c3cc(F)cc(F)c3)n2)cc1 | 256 | 19.6 | –
O=C(NO)c1ccc(Cn2cnc(-c3cccc(C(F)(F)F)c3)n2)cc1 | 122 | 4.57 | –
O=C(NO)c1ccc(Cn2cnc(-c3cccnc3)n2)cc1 | 356 | 27.9 | –
O=C(NO)c1ccc(Cn2cnc(Br)n2)cc1 | 926 | 44.1 | –

More lines, in order of falling IC50 [2], values ahead:

IC50 [1] [nM] | IC50 [2] [nM] | SMILES | other results
38800 | 1300 | O=C(NO)c1cccc(Cn2cnc(-c3ccccc3)n2)c1 | –
18300 | 152 | O=C(NO)c1cccc(Cn2ncnc2-c2ccccc2)c1 | –
1440 | 91.8 | O=C(NO)c1ccc(Cn2cncn2)cc1 | –
431 | 20.6 | O=C(NO)c1ccc(Cn2cnc(-c3ccccc3)n2)nc1 | –
341 | 16.9 | O=C(NO)c1ccc(Cn2ncnc2-c2ccccc2)cc1 | –
168 | 14.7 | Cc1cccc(-c2ncn(Cc3ccc(C(=O)NO)cc3)n2)c1 | –
369 | 14.3 | O=C(NO)c1ccc(Cn2cnc(-c3c(F)cccc3F)n2)cc1 | –
212 | 13.3 | O=C(NO)c1ccc(Cn2cnc(-c3cccc(OC(F)(F)F)c3)n2)cc1 | –
269 | 12.6 | O=C(NO)c1ccc(Cn2cnc(-c3ccc(F)cc3)n2)cc1 | –
455 | 12.4 | O=C(NO)c1ccc(Cn2cnc(-c3ccccc3)n2)c(F)c1 | –
197 | 12.3 | O=C(NO)c1ccc(Cn2cnc(-c3cccc(O)c3)n2)cc1 | –
167 | 11.5 | COc1cccc(-c2ncn(Cc3ccc(C(=O)NO)cc3)n2)c1 | –
256 | 10 | O=C(NO)c1ccc(Cn2cnc(-c3ccccc3F)n2)cc1 | –
206 | 9.11 | O=C(NO)c1ccc(Cn2cnc(-c3ccccc3)n2)cc1 | –
268 | 8.73 | O=C(NO)c1ccc(Cn2cnc(-c3cccc(F)c3)n2)cc1 | –
111 | 6.4 | O=C(NO)c1ccc(Cn2cnc(-c3cccc(Cl)c3)n2)cc1 | –
